What all share (assay type): cell-based
In assay [1] the target is T1, Potassium channel subfamily K member 10 (Homo sapiens) (UniProt P57789).
T1 sequence (whole entry): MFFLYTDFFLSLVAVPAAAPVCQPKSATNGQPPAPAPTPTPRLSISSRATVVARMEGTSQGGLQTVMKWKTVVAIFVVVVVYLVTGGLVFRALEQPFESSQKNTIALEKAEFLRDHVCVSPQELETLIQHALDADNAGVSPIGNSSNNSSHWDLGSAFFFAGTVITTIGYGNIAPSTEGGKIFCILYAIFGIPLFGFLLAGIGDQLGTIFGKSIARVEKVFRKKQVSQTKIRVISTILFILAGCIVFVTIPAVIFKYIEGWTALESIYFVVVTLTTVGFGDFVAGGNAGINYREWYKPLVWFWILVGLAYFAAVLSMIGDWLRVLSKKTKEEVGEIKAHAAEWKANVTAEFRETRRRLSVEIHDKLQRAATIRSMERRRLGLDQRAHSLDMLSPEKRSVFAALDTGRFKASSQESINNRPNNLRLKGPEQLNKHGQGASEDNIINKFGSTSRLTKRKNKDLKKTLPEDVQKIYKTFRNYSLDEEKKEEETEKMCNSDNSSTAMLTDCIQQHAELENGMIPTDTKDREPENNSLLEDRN
Kind of assay: Activation of K2P10.1 (unknown origin) expressed in Xenopus oocytes assessed as effect on channel currents at -80 mV holding potential at 100 uM by two-electrode voltage clamp assay relative to control.

Assay [2] concerns the target Potassium channel subfamily K member 9 (Homo sapiens) (UniProt Q9NPC2). Description: Activation of K2P9.1 (unknown origin) expressed in Xenopus oocytes assessed as effect on channel currents at -80 mV holding potential at 100 uM by two-electrode voltage clamp assay relative to control. On the technique in general: Two-electrode voltage clamp is typically applied to oocytes expressing channels or transporters.

The target in assay [3] is T2, Potassium channel subfamily K member 5 (Homo sapiens) (UniProt O95279).
T2 sequence (whole entry): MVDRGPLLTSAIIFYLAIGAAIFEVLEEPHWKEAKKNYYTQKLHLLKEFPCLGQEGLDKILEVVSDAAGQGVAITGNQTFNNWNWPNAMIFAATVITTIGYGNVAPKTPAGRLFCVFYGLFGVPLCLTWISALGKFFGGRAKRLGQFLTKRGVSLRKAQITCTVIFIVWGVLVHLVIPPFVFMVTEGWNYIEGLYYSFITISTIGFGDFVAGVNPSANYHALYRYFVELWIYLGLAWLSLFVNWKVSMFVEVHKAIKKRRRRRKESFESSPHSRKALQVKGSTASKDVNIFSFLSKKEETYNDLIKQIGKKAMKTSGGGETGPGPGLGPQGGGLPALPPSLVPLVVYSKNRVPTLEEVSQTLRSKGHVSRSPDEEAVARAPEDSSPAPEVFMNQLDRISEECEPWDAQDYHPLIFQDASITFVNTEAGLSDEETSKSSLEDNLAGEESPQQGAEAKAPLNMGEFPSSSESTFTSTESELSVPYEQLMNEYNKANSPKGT
Kind of assay: Activation of K2P5.1 (unknown origin) expressed in Xenopus oocytes assessed as effect on channel currents at -80 mV holding potential at 100 uM by two-electrode voltage clamp assay relative to control.

For assay [4], the target named is T3, Potassium channel subfamily K member 18 (Homo sapiens) (UniProt Q7Z418).
T3 sequence (whole entry): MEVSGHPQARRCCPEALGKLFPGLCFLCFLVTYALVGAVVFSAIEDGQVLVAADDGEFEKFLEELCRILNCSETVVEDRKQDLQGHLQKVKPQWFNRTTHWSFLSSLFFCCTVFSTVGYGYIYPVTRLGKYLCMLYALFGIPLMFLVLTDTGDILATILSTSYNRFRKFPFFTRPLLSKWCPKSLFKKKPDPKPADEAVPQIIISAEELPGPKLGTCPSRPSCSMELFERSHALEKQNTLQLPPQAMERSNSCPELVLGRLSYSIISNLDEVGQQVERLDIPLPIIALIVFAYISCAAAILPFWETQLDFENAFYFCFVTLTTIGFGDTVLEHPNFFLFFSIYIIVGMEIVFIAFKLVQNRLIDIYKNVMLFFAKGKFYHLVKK
Description: Activation of K2P18.1 (unknown origin) expressed in Xenopus oocytes assessed as effect on channel currents at -80 mV holding potential at 100 uM by two-electrode voltage clamp assay relative to control.

Assay [5] has as its target T4, Potassium channel subfamily K member 2 (Homo sapiens) (UniProt O95069).
T4 sequence (whole entry): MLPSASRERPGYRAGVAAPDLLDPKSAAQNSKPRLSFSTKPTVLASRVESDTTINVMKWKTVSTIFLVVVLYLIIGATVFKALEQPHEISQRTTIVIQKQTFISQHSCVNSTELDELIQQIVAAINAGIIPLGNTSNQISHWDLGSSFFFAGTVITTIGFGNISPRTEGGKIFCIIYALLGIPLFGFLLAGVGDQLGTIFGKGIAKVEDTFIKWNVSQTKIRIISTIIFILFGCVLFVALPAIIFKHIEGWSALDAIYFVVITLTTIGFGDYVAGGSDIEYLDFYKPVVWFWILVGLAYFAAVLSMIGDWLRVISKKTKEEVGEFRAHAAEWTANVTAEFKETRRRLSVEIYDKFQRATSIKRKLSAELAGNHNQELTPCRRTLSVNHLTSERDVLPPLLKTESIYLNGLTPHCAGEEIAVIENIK
Kind of assay: Activation of K2P2.1 (unknown origin) expressed in Xenopus oocytes assessed as effect on channel currents at -80 mV holding by two-electrode voltage clamp assay relative to control.

In assay [6] the target is T4, Potassium channel subfamily K member 2 (Homo sapiens). Description: Activation of K2P2.1 (unknown origin) expressed in HEK293T cells assessed as effect on channel currents by measuring half-maximal activation time at 5 to 20 uM by two-electrode voltage clamp assay relative to control.
The target is the same in assay [7]. Kind of assay: Activation of K2P2.1 (unknown origin) expressed in whole HEK293T cells assessed as effect on channel currents by measuring time of return to baseline following compound washout at 20 uM by two-electrode voltage clamp assay relative to control.
The target is the same in assay [8]. Kind of assay: Activation of K2P2.1 (unknown origin) expressed in HEK293T cell membranes in inside-out patch configuration assessed as effect on channel currents by measuring time of half-maximal activation at 20 uM by two-electrode voltage clamp assay relative to control.
For assay [9], the system named is Potassium channel subfamily K member 2 (Homo sapiens), O95069 [UNDEFINED MUTATION]. Description: Activation of K2P2.1 G137I mutant (unknown origin) expressed in Xenopus oocytes assessed as effect on channel currents at 150 uM at -80 mV holding potential by two-electrode voltage clamp assay relative to control.
The target in assay [10] is Potassium channel subfamily K member 2 (Homo sapiens, UniProt O95069, W275S). Kind of assay: Activation of K2P2.1 W275S mutant (unknown origin) expressed in Xenopus oocytes assessed as effect on channel currents at -80 mV holding potential by two-electrode voltage clamp assay.
For assay [11], the target named is Potassium channel subfamily K member 9 (Homo sapiens) (UniProt Q9NPC2). Kind of assay: Activation of K2P9.1 (unknown origin) expressed in Xenopus oocytes assessed as effect on channel currents at 150 uM at -80 mV holding potential by two-electrode voltage clamp assay relative to control.
The target in assay [12] is T1, Potassium channel subfamily K member 10 (Homo sapiens). Description: Activation of K2P10.1 (unknown origin) expressed in Xenopus oocytes assessed as effect on channel currents at -80 mV holding potential by two-electrode voltage clamp assay relative to control.

This note sets out measurements from ChEMBL document CHEMBL4421719, “Modulation of k2p channels” (2016).

pEC50: −log10 of the molar value.

Potassium channel subfamily K member 9 (Homo sapiens), sequence (Q9NPC2 whole entry): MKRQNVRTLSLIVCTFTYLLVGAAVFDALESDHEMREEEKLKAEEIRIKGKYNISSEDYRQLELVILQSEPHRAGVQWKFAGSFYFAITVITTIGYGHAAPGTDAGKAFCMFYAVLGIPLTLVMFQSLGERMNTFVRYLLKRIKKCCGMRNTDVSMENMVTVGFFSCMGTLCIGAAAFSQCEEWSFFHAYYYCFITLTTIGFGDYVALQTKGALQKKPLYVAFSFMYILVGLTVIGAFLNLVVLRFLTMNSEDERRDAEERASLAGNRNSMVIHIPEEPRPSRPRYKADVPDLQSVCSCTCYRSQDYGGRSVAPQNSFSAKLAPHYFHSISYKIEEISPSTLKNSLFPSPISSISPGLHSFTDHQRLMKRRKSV

For orientation: pEC50 means the negative decadic logarithm of the EC50, by convention in mol/L. Turning to `CC1(C)c2cc(Cl)ccc2N(CCc2nnn[nH]2)c2ccc(Cl)cc21`, the Emax was 11.4% in assay [1]; 2% in assay [2]; 1.7% in assay [3]; 0.9% in assay [4]; 11.1 to 11.4 in [5]; 0.9 in assay [9]. In addition, the results for the Emax in [11] and in [12] were 2.1 and 11.4, respectively. Besides, in assay [6], the TIME is 0.00114 h. Also, the T1/2 in assay [7] was found to be 3.9 s; in [8], 10.8 s. Besides, the negative-log EC50 (pEC50) in assay [10] is 4.66.
